Experimental data taken from patent EP0297610A1, “N-[(2,6-disubstituted)phenyl]-urea and carbamate inhibitors of acyl-CoA:cholesterol acyl-transferase” (WARNER-LAMBERT COMPANY, priority 1987, dated 1989).

How the values were obtained:
[1] = target: acyl-CoA:cholesterol acyltransferase (ACAT); test: In vitro ACAT inhibition: formation of radiolabeled cholesterol oleate from radiolabeled oleic acid in rabbit intestinal microsomes; format: biochemical; conditions: tissue preparation containing rabbit intestinal microsomes, read-out: IC₅₀
male Sprague-Dawley rats = test: In vivo screen PCC: total blood cholesterol in cholesterol-fed rats; conditions: one week; for % Change: change of total blood cholesterol vs control (181 mg/dl), 0.05% test drug in diet, rats; for Total Blood Cholesterol: male Sprague-Dawley rats, 0.05% test drug admixed into diet with 5.5% peanut oil, 1.5% cholesterol, 0.3%-0.5% cholic acid, Control = 181
Description: In an in vivo screen, designated PCC, male Sprague-Dawley rats (approximately 200 g body weight) are randomly divided into groups and provided ad libidum a regular chow diet (Purina No. 5002, Ralston Purina Co., 711 West Fuesser Road, Mascoutah, Illinois, 62224, USA), supplemented with 5.5% peanut oil, 1.5% choles-terol, and 0.3%-0.5% cholic acid, together with 0.05% of the test drug which is admixed into the diet. After one week the animals are etherized and a blood sample is taken from the heart and mixed with 0.14% ethylene-diamine tetraacetic acid (EDTA) to measure the total cholesterol.

IC50 [1]	Structure (SMILES)	% Change (male Sprague-Dawley rats)	Total Blood Cholesterol (male Sprague-Dawley rats)
48 nM	CCCCCCCCCCCCCCCCCCNC(=O)Nc1c(C(C)C)cccc1C(C)C [Example 11, N-[2,6-bis(1-Methylethyl)phenyl]-N′-octadecylurea]	–	–
1100 nM	CCCCCCCCCCCCCCCCCCNC(=O)Nc1c(C)cccc1Cl [Example 10, N-(2-Chloro-6-methylphenyl)-N′-octadecylurea]	–	–
37 nM	CCCCCCCC/C=C\CCCCCCCCNC(=O)Nc1c(CC)cccc1C(C)C [Example 2, (Z)-N-[2-Ethyl-6-(1-methylethyl)-phenyl]-N′-9-octadecenylurea]	-41%	107 (Control = 181) mg/dl
10000 nM	CCCCCCCC/C=C\CCCCCCCCNC(=S)Nc1c(C)cccc1C [Example 3, (Z)-N-(2,6-Dimethylphenyl)-N′-9-octadecenylthiourea]	–	–
56 nM	CCCCCCCCCCNC(=O)Nc1c(C(C)C)cccc1C(C)C [Example 15, N-[2,6-bis(1-Methylethyl)phenyl]-N′-decylurea]	–	–
180 nM	CCCCCCCC/C=C\CCCCCCCCNC(=O)Nc1c(C)cccc1Cl [Example 5, (Z)-N-(2-Chloro-6-methylphenyl)-N′-9-octadecenylurea]	–	–
200 nM	CCCCCCCCCCNC(=O)Nc1c(C)cccc1C(C)(C)C [Example 18, N-Decyl-N′-[2-(1,1-dimethylethyl)-6-methylphenyl]urea]	–	–
19 nM	CCCCCCCCCCCCCCNC(=O)Nc1c(CC)cccc1C(C)C [Example 1, N-[2-Ethyl-6-(1-methylethyl)-phenyl]-N′-tetradecylurea]	-41%	106 (Control = 181) mg/dl
420 nM	CCCCCCCCCCCCCCNC(=S)Nc1c(CC)cccc1CC [Example 12, N-(2,6-Diethylphenyl)-N′-tetradecylthiourea]	–	–
400 nM	CCCCCCCC/C=C\CCCCCCCCNC(=O)Nc1c(Cl)cccc1Cl [Example 6, (Z)-N-(2,6-Dichlorophenyl)-N′-9-octadecenylurea]	–	–
27 nM	CCCCCCCCCCCCCCNC(=O)Nc1c(C)cccc1Cl [Example 7, N-(2-Chloro-6-methylphenyl)-N′-tetradecylurea]	–	–
160 nM	CCCCCCCC/C=C\CCCCCCCCNC(=O)Nc1c(C)cccc1C [Example 4, (Z)-N-(2,6-Dimethylphenyl)-N′-9-octadecenylurea]	–	–

Structure (SMILES)	IC50 [1]	% Change (male Sprague-Dawley rats)	Total Blood Cholesterol (male Sprague-Dawley rats)
CCCCCCCCCCC(C)(C)NC(=O)Nc1c(C(C)C)cccc1C(C)C [Example 20, N-[2.6-bis(1-Methylethyl)phenyl]-N′-(1,1-dimethylundecyl)urea]	45 nM	–	–
CCCCCCCCCCNC(=O)Nc1c(C)cccc1C(C)C [Example 17, N-Decyl-N′-[2-methyl-6-(l-methylethyl)-phenyl]urea.]	210 nM	–	–
CCCCCCCCCCC1(NC(=O)Nc2c(CC)cccc2CC)CCCC1 [Example 21, N-(1-Decylcyclopentyl)-N′-(2.6-diethylphenyl)urea]	100 nM	–	–
CCCCCCCCCCCCCCNC(=O)Nc1c(CC)cccc1CC [Example 8, N-(2,6-Diethylphenyl)-N′-tetra-decylurea]	21 nM	–	–
CCCCCCCCCCC(C)(C)NC(=O)Nc1c(CC)cccc1CC [Example 19, N-(2,6-Diethylphenyl)-N′-(1.1-dimethylundecyl)urea]	52 nM	-60%	73 (Control = 181) mg/dl
